Tests used:
[1] = Antiproliferative activity against African green monkey Vero cells assessed as reduction in cell viability at 100 uM after 48 hrs by SRB assay; assay type: cell-based; details: chlorocebus sabaeus
[2] = tested on: NCI-H157; assay: Antiproliferative activity against human NCI-H157 cells assessed as cell growth inhibition after 48 hrs by SRB assay; assay type: functional, cell-based; details: NCI-H157, 48 h
[3] = target: Urease (Canavalia ensiformis, UniProt P07374); assay: Inhibition of Jack bean urease assessed as production of ammonia after 30 mins by indophenol method
Chain of Urease (P07374 whole entry): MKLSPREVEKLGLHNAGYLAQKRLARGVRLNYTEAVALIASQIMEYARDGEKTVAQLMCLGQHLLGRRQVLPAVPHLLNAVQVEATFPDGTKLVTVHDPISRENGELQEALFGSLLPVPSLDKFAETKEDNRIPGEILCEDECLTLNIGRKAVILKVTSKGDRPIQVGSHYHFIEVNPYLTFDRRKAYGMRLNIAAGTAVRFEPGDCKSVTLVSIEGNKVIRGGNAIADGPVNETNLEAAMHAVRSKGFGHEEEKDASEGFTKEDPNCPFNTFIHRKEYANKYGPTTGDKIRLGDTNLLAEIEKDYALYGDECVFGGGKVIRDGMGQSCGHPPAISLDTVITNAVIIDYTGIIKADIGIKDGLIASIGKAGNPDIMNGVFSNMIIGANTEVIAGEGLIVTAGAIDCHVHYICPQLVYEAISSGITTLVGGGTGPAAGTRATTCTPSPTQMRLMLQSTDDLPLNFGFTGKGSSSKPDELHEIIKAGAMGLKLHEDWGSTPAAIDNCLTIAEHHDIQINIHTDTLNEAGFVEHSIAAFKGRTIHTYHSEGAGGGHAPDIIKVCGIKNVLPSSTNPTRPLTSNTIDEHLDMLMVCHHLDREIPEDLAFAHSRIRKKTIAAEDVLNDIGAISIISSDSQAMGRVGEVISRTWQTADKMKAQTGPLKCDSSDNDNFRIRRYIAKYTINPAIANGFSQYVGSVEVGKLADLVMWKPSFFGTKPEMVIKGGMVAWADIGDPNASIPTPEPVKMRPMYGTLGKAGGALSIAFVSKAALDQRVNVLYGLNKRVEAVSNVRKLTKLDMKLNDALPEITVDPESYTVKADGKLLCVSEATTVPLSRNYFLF

[4] = target: Urease (Canavalia ensiformis) (UniProt P07374); assay: Inhibition of Jack bean urease assessed as production of ammonia at 10 mM after 30 mins by indophenol method
Chain of Urease (Canavalia ensiformis) (P07374 whole entry, looked up): as the sequence (P07374 whole entry) above

SMILES	inhibition at 48 h, 100 µM [1] [%]	IC50 [2] [nM]	IC50 [3] [nM]	inhibition [4] [%]
CC[C@]1(O)C[C@H]2CN(CCc3c([nH]c4ccccc34)[C@@](C(=O)OC)(c3cc4c(cc3OC)N(C=O)[C@H]3[C@@](O)(C(=O)OC)[C@H](OC(C)=O)[C@]5(CC)C=CCN6CC[C@]43[C@@H]65)C2)C1 [VINCRISTINE]	16.8	–	–	–
Cc1ccc(/N=C2\C(=O)Nc3ccc(S(=O)(=O)O)cc32)cc1/N=C1\C(=O)Nc2ccc(S(=O)(=O)O)cc21	11.7	3880	25200	> 50
Cc1ccc(/N=C2\C(=O)Nc3ccc(Br)cc32)cc1/N=C1\C(=O)Nc2ccc(Br)cc21	18.7	2320	40	> 50
Cc1ccc(/N=C2\C(=O)Nc3ccc(Cl)cc32)cc1/N=C1\C(=O)Nc2ccc(Cl)cc21	18.5	2560	110	> 50
Cc1ccc(/N=C2\C(=O)Nc3ccccc32)cc1/N=C1\C(=O)Nc2ccccc21	23.6	3760	1150	> 50
Cc1ccc(/N=C2\C(=O)Nc3ccc(F)cc32)cc1/N=C1\C(=O)Nc2ccc(F)cc21	22.1	2990	1650	> 50
Cc1ccc(/N=C2\C(=O)Nc3ccc([N+](=O)[O-])cc32)cc1/N=C1\C(=O)Nc2ccc([N+](=O)[O-])cc21	10.9	3730	5860	> 50
Cc1ccc2c(c1)/C(=N/c1ccc(C)c(/N=C3\C(=O)Nc4ccc(C)cc43)c1)C(=O)N2	13.4	3010	340	> 50
